Laboratory results taken from ChEMBL document CHEMBL2095176, “GSK Tuberculosis Screening Data”.
≈ marks a conversion by molar mass, not a printed value.

Tested on: Mycobacterium tuberculosis variant bovis BCG
Test: microbe, parasite or virus in culture
Assay type: functional

Compound	MIC90 [µM]
O=C(NC1CCCCC1)c1cc2cc(OC(F)(F)F)ccc2[nH]1	6.4 (≈ 2.09 µg/mL)
Cn1c(Sc2ccnc(N3CCN(c4ccncc4)CC3)n2)nnc1C(N)=O	6.9 (≈ 2.74 µg/mL)
Br.CCc1ccccc1OCCCON1C(=N)N=C(N)NC1(C)C	2.8
NC1CCCN(c2ncnc(-c3ccc4c(c3)CCC4)n2)C1 (configuration not stated)	9.3 (≈ 2.75 µg/mL)
Cc1ccc(-c2nnc3sc(Cc4cccs4)nn23)cc1	5.5 (≈ 1.72 µg/mL)
C=Cn1cccc1C(=O)N1CCCC(n2cnc3sc(C)c(CC)c3c2=O)C1 (configuration not stated)	7.3 (≈ 2.89 µg/mL)
O=C(Nc1ccccc1-c1nc(Cl)cs1)OCC1CCNCC1	5.2 (≈ 1.83 µg/mL)
CC1=C(C(=O)Nc2ccc3[nH]ncc3c2)C(c2cc(C#Cc3ccccc3)cs2)NC(=O)N1 (configuration not stated)	2 (≈ 0.907 µg/mL)
CCc1nn2c(C3CCCNC3)ccnc2c1-c1ccc(OC)cc1 (configuration not stated)	1.5 (≈ 0.505 µg/mL)
CCS(=O)(=O)c1cccc(C(=O)Nc2nc(-c3ccccn3)cs2)c1	5.2 (≈ 1.94 µg/mL)
COc1ccc(S(=O)(=O)Nc2ccc(Nc3ccccc3)cc2OC)cc1	3 (≈ 1.15 µg/mL)
Cc1cc(/C=C/c2cccc(C(=O)O)c2)cc(Cl)c1OCC1CCCNC1 (configuration not stated)	6.7 (≈ 2.59 µg/mL)
CC(=O)N(C)c1ccc(Oc2ccnc(NCc3c(C)cccc3C)n2)cc1	9.5 (≈ 3.58 µg/mL)
O=C(Nc1nc(-c2ccccn2)cs1)c1cc2ccccc2o1	7 (≈ 2.25 µg/mL)
O=C(Nc1nc(-c2ccccn2)cs1)c1cccc(Oc2ccccc2)c1	3.4 (≈ 1.27 µg/mL)
CCc1c(C)nc(-n2nc(C)cc2NC(=O)COc2ccccc2F)[nH]c1=O	2.8 (≈ 1.08 µg/mL)
Cc1ccc(Nc2cc(C)nn2-c2nc(C)cc(O)n2)cc1	0.5 (≈ 0.148 µg/mL)
CN1CCCN(c2ncnc3sc(-c4ccccc4)cc23)CC1	7.4 (≈ 2.4 µg/mL)
O=C(Nc1nc(-c2ccccn2)cs1)c1cc2c(s1)CCCCC2	3.1 (≈ 1.1 µg/mL)
O=C(Nc1cccc(Cl)c1)NC12CC3CC(CC(C3)C1)C2	6.3 (≈ 1.92 µg/mL)
Cc1cccc(-c2nc(Nc3ccncn3)c3c(C)csc3n2)n1	0.3 (≈ 0.1 µg/mL)

Compound	MIC90 [µM]
CN(C)CCOc1ccc2c(c1)N(C(=O)Cc1ccc(Cl)c(Cl)c1)CC2	9.9 (≈ 3.89 µg/mL)
CC(C)COc1ccc(C(=O)Nc2ccc(N3CCN(C)CC3)cc2)cc1	6.9 (≈ 2.54 µg/mL)
COc1ccc(-c2nc(NC(=O)C3CCCN3S(=O)(=O)c3cccs3)sc2C)cc1 (configuration not stated)	6.9 (≈ 3.2 µg/mL)
Cc1cc(C(=O)Nc2nc(C)c(C)s2)c2c(C)nn(C(C)C)c2n1	5.5 (≈ 1.89 µg/mL)
CCCCOc1ccc(C(=O)Nc2nnc(-c3ccccc3)o2)cc1	3.1 (≈ 1.05 µg/mL)
CC(C)(C)c1ccc(-c2nnc(SCC(=O)OC3CCCCC3)o2)cc1	8.1 (≈ 3.03 µg/mL)
Cc1ccc2c(OC3CCNCC3)cccc2n1	5.9 (≈ 1.43 µg/mL)
CCCCCNc1nc(N2CCCC2)c2c(c1C#N)CCN(C)C2	1.6 (≈ 0.524 µg/mL)
COc1ccc(-c2cncc(-c3cc(N4CCN(CCO)CC4)nc(-c4ccccc4)n3)c2)cc1	7.9 (≈ 3.69 µg/mL)
O=C(Nc1ccccc1-c1nc(Cl)cs1)OCCC1CCCCN1 (configuration not stated)	0.2 (≈ 0.0732 µg/mL)
Cc1nc2ccccn2c1C(=O)NCc1ccc(Cl)cc1	2 (≈ 0.6 µg/mL)
Cc1ccc2nc(C)c(-c3ccn(Cc4ccccc4)n3)n2c1	5.9 (≈ 1.78 µg/mL)
CCOc1cc(OC)c(C(=O)Nc2cccc3c2CCN(C)C3C)cc1Cl (configuration not stated)	5.6 (≈ 2.18 µg/mL)
Cc1cc(Oc2cccc3[nH]ccc23)nc(N2CCNCC2)n1	6.2 (≈ 1.92 µg/mL)
CC(=O)NCCn1c(Sc2ccnc(N3CCN(c4ccncc4)CC3)n2)nnc1-c1ccco1	2.6 (≈ 1.28 µg/mL)
Fc1ccc(-c2cccc3ccc(N4CCNCC4)nc23)cc1	8.5 (≈ 2.61 µg/mL)
CCCn1nnnc1NC(=O)c1ccc(Cl)c(Cl)c1	7.9 (≈ 2.37 µg/mL)
CC(C)c1ccc2oc(-c3ccc(NC(=O)c4cccnc4)cc3)nc2c1	1.2 (≈ 0.429 µg/mL)
Cc1nnc(NCc2cccc(Cl)c2)c2ccccc12	1.5 (≈ 0.426 µg/mL)
COc1ccc(-c2ccc(Nc3cccc(S(=O)(=O)CCNCCc4cccs4)c3)nc2)cn1	7.2 (≈ 3.56 µg/mL)
Cc1cc(O)nc(-n2nc(C)cc2NC(=O)c2cc3ccccc3o2)n1	6.2 (≈ 2.17 µg/mL)

Compound	MIC90 [µM]
CN(C)CCNCc1ccc(-c2cc(Cl)cc(Cl)c2)o1	2.7 (≈ 0.846 µg/mL)
CCCc1cc(-c2nc(-c3ccc4c(c3)OCO4)cs2)ccn1	6.7 (≈ 2.17 µg/mL)
CCCCOc1ccc(C(=O)Nc2nc(-c3ccccn3)cs2)cc1OCC	3.6 (≈ 1.43 µg/mL)
COc1ccc(NC(=O)N2CCCN(c3nc4c(C)c(C)ccc4cc3C#N)CC2)cc1	5.3 (≈ 2.28 µg/mL)
Cc1cccc(-c2noc(CNC(=O)c3ccccc3CCc3ccccc3)n2)c1	6.1 (≈ 2.42 µg/mL)
CCc1c(C)sc2nc(C)nc(SCC(=O)NCc3ccccc3)c12	7.2 (≈ 2.68 µg/mL)
CCC(Sc1nc2ccccc2o1)C(=O)Nc1nccs1 (configuration not stated)	5.7 (≈ 1.82 µg/mL)
CCc1nc2ccccc2n1CC(O)COc1cc(C)ccc1Cl (configuration not stated)	9.7 (≈ 3.34 µg/mL)
O=C(NC1CCSc2ccccc21)c1ccc(S(=O)(=O)N2CCOCC2)cc1 (configuration not stated)	3.3 (≈ 1.38 µg/mL)
Cn1ccnc1CNCCS(=O)(=O)c1cccc(Nc2ccc(-c3cccc(F)c3)cn2)c1	4.3 (≈ 2 µg/mL)
Cc1ccc(-c2ccc(SCC(=O)Nc3nonc3C)nn2)cc1	6.8 (≈ 2.32 µg/mL)
Cc1nnc(SCC(=O)NNC(=O)c2ccco2)nc1O	3 (≈ 0.928 µg/mL)
COc1ccc(-c2cc(NC(=O)c3ccc(F)cc3Cl)ccc2OC)cc1	8.2 (≈ 3.16 µg/mL)
NC(=O)c1cc(-c2ccsc2)ccc1OCCOc1ccccc1	2.7 (≈ 0.916 µg/mL)
CC1CN(Cc2cccc(C(=O)NCc3ccc(F)c(-c4cccc(CN5CCN[C@@H](C)C5)c4)c3)c2)C(C)CN1 (some centres not stated)	8.9 (≈ 4.84 µg/mL)
Cc1ccc2nc(C(F)(F)F)c(C(=O)NCc3ccc(C)o3)n2c1	4.4 (≈ 1.48 µg/mL)
NC(=O)c1cnc2ccc(S(=O)(=O)c3ccccc3)cc2c1Nc1ccc(O)cc1	2.9 (≈ 1.22 µg/mL)
Nc1cccnc1Nc1ccc(C(F)(F)F)cc1	3.7 (≈ 0.937 µg/mL)
Cc1cc(C(=O)Nc2nc3c(C)cccc3s2)c2c(C)nn(C(C)C)c2n1	2.5 (≈ 0.949 µg/mL)
CCCc1ccc(S(=O)(=O)Nc2cc(CN3CCN(CCC)CC3)ccc2C)cc1	9.9 (≈ 4.25 µg/mL)
COc1ccc(Nc2nc(CN3CCN(Cc4ccc(C#N)cc4)CC3)cs2)cc1	8.6 (≈ 3.61 µg/mL)

Compound	MIC90 [µM]
c1cc(CN2CCC3(CC2)OCCc2sccc23)nc(-c2ccc3c(c2)OCO3)c1	2.3 (≈ 0.967 µg/mL)
CC(C)n1ncc2c(C(=O)NCC(c3cccs3)N3CCOCC3)cc(-c3ccccc3)nc21 (configuration not stated)	2.5 (≈ 1.19 µg/mL)
CCc1ccc(Nc2nnc(SCc3cc(C)on3)s2)cc1	7.4 (≈ 2.46 µg/mL)
COc1ccc(CCC(=O)Nc2ccccc2Nc2ccc(OC)cc2)cc1	3.9 (≈ 1.47 µg/mL)
CCOC(=O)c1c(-c2ccccc2)oc2ccc(O)c(CN3CCCC3)c12	3.9 (≈ 1.43 µg/mL)
Cc1ccc2nc(C(F)(F)F)c(C(=O)NCc3ncc(C(F)(F)F)cc3Cl)n2c1	9.9 (≈ 4.32 µg/mL)
O=C(Nc1ccc(C(=O)N2CCCCC2c2nc3ccccc3s2)cc1)c1ccco1 (configuration not stated)	0.1 (≈ 0.0432 µg/mL)
CN(CCOc1cccc(-c2ccc(C(=O)N3CCCC3)cc2)c1)Cc1cc(-c2ccccc2)no1	3.1 (≈ 1.49 µg/mL)
COc1cc(CCN2CC[C@H](NC(=O)c3ccc(Cl)c(Cl)c3)C2)ccc1OC1CCNCC1	7 (≈ 3.45 µg/mL)
Br.Cc1ccccc1OCCCON1C(=N)N=C(N)NC1(C)C	7
CS(=O)(=O)c1ccc(C(=O)Nc2nc(-c3ccccn3)cs2)cc1	3.6 (≈ 1.29 µg/mL)
COc1cc(/C=C/C(=O)O)ccc1OCCN1CCCCCC1	7 (≈ 2.24 µg/mL)
COc1ccc(-c2cnc(Nc3cccc(S(=O)(=O)CCN4CCc5ccccc5C4)c3)nc2)cn1	5.7 (≈ 2.86 µg/mL)
O=C(Cc1ccc(F)cc1)Nc1nc(-c2ccccn2)cs1	8.9 (≈ 2.79 µg/mL)
Cl.Cl.O=C(Nc1ccc(NC2=NCCN2)cc1)c1ccc(C(=O)Nc2ccc(NC3=NCCN3)cc2)cc1	0.4
Cc1ccc2[nH]c(SCC(=O)NNC(=O)c3cccs3)nc2c1	5.9 (≈ 2.04 µg/mL)
CCN(CC)CCCn1c(Sc2ccnc(N3CCN(c4ccncc4)CC3)n2)nnc1-c1ccccc1	2.4 (≈ 1.27 µg/mL)
Cc1cccc(-c2nc(Nc3ccncn3)c3sccc3n2)n1	0.3 (≈ 0.0961 µg/mL)
CCOc1cc(OCC)c(C(=O)C(C)C)cc1C(=O)Nc1cccc2c1CCN(C)C2	9.6 (≈ 4.08 µg/mL)
